Data reported in patent US20250270203A1, “NICOTINIC ACETYLCHOLINE RECEPTOR LIGANDS” (Philip Morris Products S.A., priority 2022, published 2025).
Read-outs that look alike come from different tables or passages of the source.

Legend:
[1] = target: human α7 nAChR (Homo sapiens (Human), UniProt P36544); test: biochemical; type: binding; details: for nAChR subtype preference / selectivity: in words, from Ki at α7, α4β2, α3β4
[2] = target: α4β2 nAChR (Homo sapiens (Human), UniProt P17787+P43681); test: nAChR binding affinity, α4β2 subtype
[3] = target: α3β4 nAChR (Homo sapiens (Human), UniProt P30926+P32297); test: nAChR binding affinity, α3β4 subtype; details: Table 2
[4] = tested on: citric acid-induced cough in guinea pigs; test: Citric acid-induced cough in guinea pigs, dry powder insufflation, nebulisation, oral and intraperitoneal administration (Example 28); type: in vivo, guinea pig
Experimental: The mean concentration of citric acid was 1156.0±111.8 μg/L for both routes.
Regarding oral administration, the duration between compound administration and start of citric acid challenge was 30 minutes. The data was compared to atmospheric air (control).
Regarding intraperitoneal administration, compounds were administered approximately 10-15 mins before the cough challenge (citric acid inhalation challenge). Test compounds were dosed at between 1-30 mg/kg (as described herein for each experiment) while the positive control (codeine) was dosed at 30 mg/kg, in each case using a dosing volume of 10 ml/kg, by a single intraperitoneal injection.

[5] = tested on: citric acid-induced cough in guinea pigs; test: Citric acid-induced cough in guinea pigs, intraperitoneal injection (Example 27)
Experimental: As depicted in FIG. 1B and FIG. 1C, cough induction is conducted by placing guinea pigs into a whole body plethysmograph (WBP) equipped with a Aeroneb™ vibrating mesh nebulizer, and including pressure transducers and detection equipment (EMKA technologies). A primary microphone is supplied (EMKA Technologies) for acoustic confirmation of cough frequency in the form of a digital trace using the EMKA software.
A secondary microphone (T1 True Wireless Earphone, QCY®) also is placed in the chamber and connected to a smartphone via Bluetooth to enable the observers to hear the audible sounds during the test. A bias flow rate of 2 L/min is used to continuously draw either atmospheric air (during the fresh air period) or aerosolized citric acid from the nebulizer into the WBP and expel it out through an exhaust pipe. Chamber pressure in the WBP is set to be between −10 to −30 Pa relative to ambient pressure.
Prior to the citric acid challenge, the guinea pigs are administered (intraperitoneal injection) with vehicle control, positive control or test compound (where applicable) with different dosage (Table 3) and placed individually into the WBP for at least 5 minutes in order to habituate.
The procedure was as follows: Injection→guinea pig in box having citric acid for 10 mins (counting the cough)→box then fill with air for 5 mins (counting the cough)→guinea pig moved to recovery cage.
Appropriate concentration of citric acid is used to generate aerosol and deliver to WBP for 10 minutes with constant recording of pressure measurements. The mean concentration of citric acid was 1283.1±137.2 μg/L. Upon completion of citric acid challenge, the guinea pig is allowed to recover and continue recording of cough counts for another 5 minutes. Subsequently, the guinea pigs are closely monitored in recovery cage for full recovery from the challenge and that no adverse events were present before returning the animals to its home cage. Cough counts (CCnt) are recorded over a period of at least 10 mins, starting from citric acid stimulation and cough incubation period (CIP) are defined as the time it takes to cough for the first time after citric acid stimulation.
The data were analysed using Oneway ANOVA (* p<0.05, ** p<0.01, *** p<0.001, **** p<0.0001) when compared to saline control, and each column represents Mean±SEM.

[6] = Table 1, [125I] α-Bungarotoxin, Cheng-Prusoff, read-out: α7 Ki

Sequence of α3β4 nAChR (P32297 32-505): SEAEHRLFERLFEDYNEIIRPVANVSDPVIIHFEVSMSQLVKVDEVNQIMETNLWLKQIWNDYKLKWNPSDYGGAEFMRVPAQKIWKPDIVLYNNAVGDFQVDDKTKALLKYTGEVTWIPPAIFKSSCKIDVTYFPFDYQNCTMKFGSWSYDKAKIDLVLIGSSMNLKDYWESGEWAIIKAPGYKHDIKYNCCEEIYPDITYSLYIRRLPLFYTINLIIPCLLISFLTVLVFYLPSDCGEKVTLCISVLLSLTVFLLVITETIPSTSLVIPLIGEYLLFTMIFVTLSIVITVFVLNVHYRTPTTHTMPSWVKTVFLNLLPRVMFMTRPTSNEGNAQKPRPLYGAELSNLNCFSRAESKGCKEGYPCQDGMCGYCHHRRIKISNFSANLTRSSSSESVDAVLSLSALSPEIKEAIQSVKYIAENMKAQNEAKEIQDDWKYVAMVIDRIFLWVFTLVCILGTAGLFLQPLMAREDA
Sequence of α3β4 nAChR (P30926 22-498): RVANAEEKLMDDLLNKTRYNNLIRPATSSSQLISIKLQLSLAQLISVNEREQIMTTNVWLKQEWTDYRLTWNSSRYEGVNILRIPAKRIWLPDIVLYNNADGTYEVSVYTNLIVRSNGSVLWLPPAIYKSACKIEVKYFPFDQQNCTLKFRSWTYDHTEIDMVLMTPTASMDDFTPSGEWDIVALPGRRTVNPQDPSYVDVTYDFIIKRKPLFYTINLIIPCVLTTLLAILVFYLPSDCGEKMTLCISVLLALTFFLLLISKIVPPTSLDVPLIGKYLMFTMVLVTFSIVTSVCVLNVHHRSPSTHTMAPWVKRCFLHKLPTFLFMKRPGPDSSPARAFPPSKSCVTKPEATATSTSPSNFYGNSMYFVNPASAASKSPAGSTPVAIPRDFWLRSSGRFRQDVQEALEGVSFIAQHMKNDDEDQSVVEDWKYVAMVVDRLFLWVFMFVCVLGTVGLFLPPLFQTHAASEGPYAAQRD
Sequence of α4β2 nAChR (P43681 29-627): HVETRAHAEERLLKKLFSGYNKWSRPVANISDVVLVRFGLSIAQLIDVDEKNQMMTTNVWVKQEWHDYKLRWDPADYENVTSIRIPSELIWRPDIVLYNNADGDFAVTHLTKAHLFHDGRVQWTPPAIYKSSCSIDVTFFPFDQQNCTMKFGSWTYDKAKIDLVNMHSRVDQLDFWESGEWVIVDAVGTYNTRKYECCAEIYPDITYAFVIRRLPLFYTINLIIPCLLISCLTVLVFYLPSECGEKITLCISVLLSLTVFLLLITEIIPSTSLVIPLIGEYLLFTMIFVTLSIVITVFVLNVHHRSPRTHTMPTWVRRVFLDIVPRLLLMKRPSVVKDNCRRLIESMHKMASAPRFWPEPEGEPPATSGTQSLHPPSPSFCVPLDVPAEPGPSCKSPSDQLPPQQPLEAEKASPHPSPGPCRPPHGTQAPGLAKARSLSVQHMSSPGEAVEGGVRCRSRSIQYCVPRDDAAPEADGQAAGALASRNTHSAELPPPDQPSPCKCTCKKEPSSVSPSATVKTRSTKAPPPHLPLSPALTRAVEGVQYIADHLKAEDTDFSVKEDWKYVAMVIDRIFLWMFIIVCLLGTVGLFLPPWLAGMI
Sequence of α4β2 nAChR (P17787 26-502): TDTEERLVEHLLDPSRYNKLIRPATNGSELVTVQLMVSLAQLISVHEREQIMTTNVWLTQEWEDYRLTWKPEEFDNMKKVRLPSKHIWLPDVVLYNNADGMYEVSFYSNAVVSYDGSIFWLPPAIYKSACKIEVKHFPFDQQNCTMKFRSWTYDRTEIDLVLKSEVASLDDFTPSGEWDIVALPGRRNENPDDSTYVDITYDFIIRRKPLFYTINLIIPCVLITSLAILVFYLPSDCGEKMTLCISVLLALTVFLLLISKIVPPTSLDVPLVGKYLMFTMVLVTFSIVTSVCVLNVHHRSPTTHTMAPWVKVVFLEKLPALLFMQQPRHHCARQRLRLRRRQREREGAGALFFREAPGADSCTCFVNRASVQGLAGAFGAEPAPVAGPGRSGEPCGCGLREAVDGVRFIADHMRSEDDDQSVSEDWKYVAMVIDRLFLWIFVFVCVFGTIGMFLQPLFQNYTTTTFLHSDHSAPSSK
Sequence of human α7 nAChR (P36544 23-502 limits assumed): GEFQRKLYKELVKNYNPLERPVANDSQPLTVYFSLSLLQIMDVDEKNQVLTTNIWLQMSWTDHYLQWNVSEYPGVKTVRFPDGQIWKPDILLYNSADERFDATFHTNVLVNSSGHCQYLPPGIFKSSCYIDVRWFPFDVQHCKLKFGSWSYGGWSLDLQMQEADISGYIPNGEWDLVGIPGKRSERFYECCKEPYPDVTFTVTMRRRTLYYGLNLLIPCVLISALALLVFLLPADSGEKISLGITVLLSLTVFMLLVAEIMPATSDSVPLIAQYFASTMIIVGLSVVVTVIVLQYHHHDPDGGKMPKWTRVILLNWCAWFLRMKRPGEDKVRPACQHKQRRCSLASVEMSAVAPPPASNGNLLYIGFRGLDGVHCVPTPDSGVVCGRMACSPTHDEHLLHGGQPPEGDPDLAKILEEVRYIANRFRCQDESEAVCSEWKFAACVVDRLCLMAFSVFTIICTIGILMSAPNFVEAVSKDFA

| SMILES | Ki ([2]; Table 2, read-out: Ki α4β2) [nM] | Ki [3] [nM] | Ki [1] [nM] | other results |
| --- | --- | --- | --- | --- |
| Nc1nc2ccc(-c3ccc(OC4C5CCN(CC5)C4Cc4cccnc4)nn3)cc2s1 (stereo not drawn) [Compound 12, trans-6-[6-[2-(3-Pyridylmethyl)quinuclidin-3-yl]oxypyridazin-3-yl]-1,3-benzothiazol-2-amine] | 50 | 1080 |  | Ki [1, 6]: 19 nM; Ki ([1]; Table 2, read-out: Ki α7): 18.8 nM |
| c1cncc(C[C@@H]2[C@@H](Oc3cnc(-c4ccc5[nH]ccc5c4)cn3)C3CCN2CC3)c1 (relative stereo) [Compound 9, trans-5-[5-[2-(3-Pyridylmethyl)quinuclidin-3-yl]oxypyrazin-2-yl]-1H-indole] | 230 | 400 |  |  |
| c1cncc(C[C@@H]2[C@@H](Oc3cnc(-c4ccc5[nH]ccc5c4)cn3)C3CCN2CC3)c1 (racemic) [Compound 9, trans-5-[5-[2-(3-Pyridylmethyl)quinuclidin-3-yl]oxypyrazin-2-yl]-1H-indole] |  |  | 240 |  |
| c1cncc(C[C@@H]2[C@@H](Oc3ccc4ccccc4n3)C3CCN2CC3)c1 (relative stereo) [Compound 18, trans-2-[2-(3-Pyridylmethyl)quinuclidin-3-yl]oxyquinoline] |  |  | 2920 |  |
| c1ccc(-c2nnc(O[C@H]3C4CCN(CC4)[C@@H]3Cc3cccnc3)s2)cc1 (relative stereo) [Compound 20, trans-2-Phenyl-5-[2-(3-pyridylmethyl)quinuclidin-3-yl]oxy-1,3,4-thiadiazole] |  |  | 320 |  |
| c1cncc(C[C@@H]2[C@@H](Oc3ccc(-c4ccc5[nH]ccc5c4)cn3)C3CCN2CC3)c1 [Compound 5, trans-5-[6-[2-(3-Pyridylmethyl)quinuclidin-3-yl]oxy-3-pyridyl]-1H-indole] |  |  | 58 |  |
| c1cncc(C[C@@H]2[C@@H](Oc3nnc(-c4ccc5[nH]ccc5c4)s3)C3CCN2CC3)c1 (racemic) [Compound 16, trans-2-(1H-Indol-5-yl)-5-[2-(3-pyridylmethyl)quinuclidin-3-yl]oxy-1,3,4-thiadiazole] | 220 | 440 |  |  |
| c1ccc(-c2ccc(O[C@H]3C4CCN(CC4)[C@@H]3Cc3cccnc3)nn2)cc1 (relative stereo) [Compound 19, trans-3-(6-Phenylpyridazin-3-yl)oxy-2-(3-pyridylmethyl) quinuclidine] |  |  | 100 |  |
| c1ccc(-c2nnc(O[C@H]3C4CCN(CC4)[C@@H]3Cc3cccnc3)s2)cc1 (racemic) [Compound 20, trans-2-Phenyl-5-[2-(3-pyridylmethyl)quinuclidin-3-yl]oxy-1,3,4-thiadiazole] |  |  | 320 |  |
| c1cncc(C[C@@H]2[C@@H](Oc3ccc(-c4ccc5[nH]ccc5c4)nn3)C3CCN2CC3)c1 [Compound 11, trans-5-[6-[2-(3-Pyridylmethyl)quinuclidin-3-yl]oxypyridazin-3-yl]-1H-indole] |  |  | 1 |  |
| c1cncc(C[C@H]2[C@H](Oc3ccc(-c4ccc5[nH]ccc5c4)nn3)C3CCN2CC3)c1 [2S,3R-11, (2S,3R)-5-[6-[2-(3-Pyridylmethyl)quinuclidin-3-yl]oxypyridazin-3-yl]-1H-indole] | 77 | 780 |  | Ki ([1]; Table 2, read-out: Ki α7): 1 nM; nAChR subtype preference / selectivity [1]: optimal and selective interaction with α7 nAChR |
| c1cncc(C[C@@H]2[C@@H](Oc3ccc(-c4ccc5[nH]ccc5c4)nn3)C3CCN2CC3)c1 (racemic) [Compound 11, trans-5-[6-[2-(3-Pyridylmethyl)quinuclidin-3-yl]oxypyridazin-3-yl]-1H-indole] |  |  | 1.4 | Ki [2]: 73 nM |
| c1cncc(C[C@@H]2[C@@H](Oc3ccc(-c4ccc5[nH]ccc5c4)nn3)C3CCN2CC3)c1 [2R,3S-11, (2R,3S)-5-[6-[2-(3-Pyridylmethyl)quinuclidin-3-yl]oxypyridazin-3-yl]-1H-indole] | 730 | 1210 |  | Ki ([1]; Table 2, read-out: Ki α7): 34 nM |
| c1cncc(C[C@@H]2[C@H](Oc3ccc(-c4ccc5[nH]ccc5c4)nn3)C3CCN2CC3)c1 (relative stereo) [Compound 7, cis-5-[6-[2-(3-Pyridylmethyl)quinuclidin-3-yl]oxypyridazin-3-yl]-1H-indole] |  | 200 | 59 | nAChR subtype preference / selectivity [1]: preferably binds to the α4β2 nAChR |
| c1cncc(C[C@@H]2[C@@H](Oc3nnc(-c4ccc5[nH]ccc5c4)s3)C3CCN2CC3)c1 [Compound 16, trans-2-(1H-Indol-5-yl)-5-[2-(3-pyridylmethyl)quinuclidin-3-yl]oxy-1,3,4-thiadiazole] |  |  |  | Ki [1, 6]: 11 nM; citric acid-induced cough counts compared with air control ([4]; dry powder insufflated, 1 mg/kg, p=0.0004): significantly reduced; citric acid-induced cough counts compared with air control ([4]; dry powder insufflated, 2 mg/kg, p=0.0042): significantly reduced; citric acid-induced cough counts compared with air control ([4]; nebulised, 0.4 mg/kg, 58 min exposure, p=0.0023): significantly reduced; citric acid-induced cough counts compared with air control ([4]; orally administered, 9.5 mg/kg, p<0.05): significantly reduced; cough frequency compared to negative control (saline) ([4]; prophylactic intraperitoneal treatment at 1, 3 and 9.5 mg/kg, FIG. 8): suppression of cough frequency; number of coughs (citric acid-induced cough counts) ([5]; i.p. 1 mg/kg, p<0.0001 vs saline control (17 coughs)): 5; cough incubation period ([5]; i.p. 1 mg/kg, p<0.001 vs saline control (206 sec)): 548 s; number of coughs (citric acid-induced cough counts) ([5]; i.p. 3 mg/kg, p<0.001 vs saline control (17 coughs)): 5; cough incubation period ([5]; i.p. 3 mg/kg, p<0.01 vs saline control (206 sec)): 455 s; number of coughs (citric acid-induced cough counts) ([5]; i.p. 9.5 mg/kg, p<0.01 vs saline control (17 coughs)): 7; cough incubation period ([5]; i.p. 9.5 mg/kg, p<0.05 vs saline control (206 sec)): 489 s |
